Among the data in the Deep4Chem optical property database are fluorescence lifetime values, retold here.

The nature of this data set: solvent given as SMILES.

Each structure is given as a SMILES string.

As for `CCn1c2ccccc2c2cc(C#Cc3cc(C#Cc4ccc5c(c4)c4ccccc4n5CC)nc(S(C)(=O)=O)n3)ccc21`, the fluorescence lifetime (in C1CCOC1) is 4.22 ns.
Turning to `CN(C)c1ccc(/C=C/c2cc[n+](Cc3cc(C[n+]4ccc(/C=C/c5ccc(N(C)C)cc5)cc4)cc(C[n+]4ccc(/C=C/c5ccc(N(C)C)cc5)cc4)c3)cc2)cc1`, the fluorescence lifetime by setting is: (in CCCCCCCCO) 0.64 ns; (in CCO) 0.06 ns; (in CO) 0.04 ns; (in ClC(Cl)Cl) 0.64 ns; (in ClCCl) 0.32 ns.
For `CC1=CC(c2ccc3ccccc3c2)=[O+][B-]2(OC(=O)C(=O)O2)O1`, the fluorescence lifetime turned out to be 18.8 ns (in CC#N) and 5.1 ns (in ClC(Cl)(Cl)Cl).
`CCCCCCN1C(=O)c2cccc3c(-c4sc(-c5ccc6c7c(cccc57)C(=O)N(CCCCCC)C6=O)c5c4OCCO5)ccc(c23)C1=O` yielded a fluorescence lifetime (in ClC(Cl)Cl) of 0.462 ns.
Still for that read-out and setting: as for `CC(C)(C)NC(=O)c1ccc2ccc3cccc4ccc1c2c34`, the figure is 7.55 ns.
As to `CSc1ccc2c(c1)N(CCCN(C)C)c1ccccc1S2`, the fluorescence lifetime is, setting by setting: (in CC#N) 1.16 ns; (in CO) 1.15 ns; (in O) 1.17 ns.
On to `N#Cc1cc(-n2c3ccccc3c3ccccc32)c(-n2c3ccccc3c3ccccc32)cc1C#N`, for which the fluorescence lifetime (in Cc1ccccc1) is 28.5 ns.
`COc1c2ccccc2c(-c2ccccc2)c2ccccc12`: the fluorescence lifetime reads like this: (in CC1CCCCC1) 2.48 ns; (in CC#N) 1.38 ns; (in CC(C)CC(C)(C)C) 2.38 ns; (in CC(C)O) 2.94 ns; (in CCCCCC) 1.52 ns; (in CCCCO) 3.7 ns. For the same molecule, the fluorescence lifetime by setting is: (in CCO) 2.9 ns; (in CO) 2.04 ns; (in OCC(O)CO) 7.53 ns.
For the setting “in C1CCOC1”, `O=C1c2cc(-c3ccccc3)ccc2-c2ccc(-c3ccccc3)cc21` had a fluorescence lifetime of 1 ns.
Consider `C(=C\c1cc(/C=C/c2ccc(-n3c4ccccc4c4ccccc43)cc2)cc(/C=C/c2ccc(-n3c4ccccc4c4ccccc43)cc2)c1)/c1ccc(-n2c3ccccc3c3ccccc32)cc1`, for which the fluorescence lifetime is, setting by setting: (in C1CCOC1) 4.56 ns; (in CC#N) 3.84 ns; (in Cc1ccccc1) 3.41 ns; (in ClCCl) 3.39 ns.
In turn, `CC1=CC(C)=[N+]2C1=C(c1c(-c3ccccn3)nc3ccccn13)c1c(C)cc(C)n1[B-]2(F)F` showed a fluorescence lifetime (in ClCCl) of 6.9 ns.
On to `CC1=[N+]2C(=C(c3ccc(C(=O)c4ccccc4)cc3)c3ccc(C)n3[B-]2(F)F)C=C1c1cc2n(c1)[B-](F)(F)[N+]1=CC=CC1=C2c1c(C)cc(C)cc1C`, for which the fluorescence lifetime (in C1CCCCC1) was found to be 2.9 ns and the fluorescence lifetime (in CCOC(C)=O) was determined as 0.92 ns.
On to `CCOC(=O)C(C(=O)OCC)C1=[N+]2C(=C(c3ccc(C)cc3)c3ccc(Cl)n3[B-]2(F)F)C=C1`, for which the fluorescence lifetime turned out to be 2.69 ns (in C1CCCCC1); 2.5 ns (in C1CCOC1); 2.31 ns (in CCOC(C)=O); 2.02 ns (in CO); 3.63 ns (in Cc1ccccc1); 3.67 ns (in ClC(Cl)Cl).
The molecule `O=C1c2ccc3c4c(NC5CCCCC5)cc5c6c(ccc(c7c(NC8CCCCC8)cc(c2c37)C(=O)N1C1CCCCC1)c64)C(=O)N(C1CCCCC1)C5=O` yielded a fluorescence lifetime (in ClC(Cl)Cl) of 1.4 ns.
In turn, `C[Si](C)(C)c1ccc(C#N)c2ccccc12` returned a fluorescence lifetime (in C1CCCCC1) of 11 ns.
Take `C=CCOc1nnc(OCCC(F)(F)C(F)(F)C(F)(F)C(F)(F)C(F)(F)C(F)(F)C(F)(F)C(F)(F)F)nn1`: the fluorescence lifetime is, setting by setting: (in ClCCl) 63.4 ns; (in OCC(F)(F)F) 8.5 ns.
With `c1cc(N2CCCC2)ccn1`, where the note is “in CC1CCCCC1”, the fluorescence lifetime came out at 11 ns.
Molecule `CCCCn1c(-c2ccc(-c3nnc(-c4ccc(-c5nc6c7ccccc7c7ccccc7c6n5CCCC)cc4)o3)cc2)nc2c3ccccc3c3ccccc3c21` registered a fluorescence lifetime (in ClCCl) of 1.64 ns.
As to `O=[N+]([O-])c1ccc(C#Cc2ccc3ccccc3c2)cc1`, the fluorescence lifetime (in ClC(Cl)Cl) came to 0.25 ns and the fluorescence lifetime (in ClCCl) came out at 0.35 ns.
Molecule `O=Cc1ccc(C#CC(C#Cc2ccc(C=O)s2)=Cc2ccc(C=C(C#Cc3ccc(C=O)s3)C#Cc3ccc(C=O)s3)s2)s1` displayed a fluorescence lifetime (in ClC(Cl)Cl) of 0.5 ns.
Turning to `c1cc2c3c(cccc3c1)C(N1CCOCCNCCOCCOCC1)=N2`, the fluorescence lifetime (in CC#N) was determined as 0.52 ns.
In the case of `CCN(CC)c1ccc2c(c1)oc(=O)c1cc3c(-c4ccccc4)nn(C)c3nc12`, the fluorescence lifetime (in ClCCl) came out at 18.9 ns.
Still for that read-out and setting: with `FC(F)(F)c1ccc(/C2=C3N=C(C(c4ccccc4)=C/3c3ccccc3)/C(c3ccc(C(F)(F)F)cc3)=c3\[nH]/c(c(-c4ccccc4)c3-c3ccccc3)=C(/c3ccc(C(F)(F)F)cc3)C3=N/C(=C(/c4ccc(C(F)(F)F)cc4)c4[nH]c2c(-c2ccccc2)c4-c2ccccc2)C(c2ccccc2)=C3c2ccccc2)cc1` the figure was 0.423 ns.
Consider `CN(C)c1ccc(C2=Cc3cc(Cl)nc[n+]3[B-](F)(F)O2)cc1`, for which the fluorescence lifetime amounted to 2.6 ns (in C1CCOC1); 0.3 ns (in CC#N); 1.9 ns (in CCCCCC); 2.3 ns (in Cc1ccccc1); 2.5 ns (in ClC(Cl)Cl); 2.8 ns (in ClCCl).
The molecule `Nc1ccc(N2C(=O)c3ccc4c5ccc6c7c(ccc(c8ccc(c3c48)C2=O)c75)C(=O)N(c2ccc(O)cc2)C6=O)cc1` displayed a fluorescence lifetime (in CN(C)C=O) of 3.1 ns.
On to `Cc1ccc2c(c1)B(c1c(C(C)C)cc(C(C)C)cc1C(C)C)c1cc(C)cc3c1N2c1ccc(C)cc1B3c1c(C(C)C)cc(C(C)C)cc1C(C)C`, for which the fluorescence lifetime (in Cc1ccccc1-c1cccc(Oc2cc3c4c(c2)Oc2cc(-c5ccccc5C)ccc2B4c2ccc(-c4ccccc4C)cc2O3)c1) was determined as 6.01 ns.
For the molecule `COc1ccc(-c2cnc3nn4ccccc4c3c2)cc1`, the fluorescence lifetime (in C1CCOC1) amounted to 4.8 ns.
Molecule `N#C/C(=C\c1ccncc1)c1nc(-c2ccc(Cl)cc2)cs1` showed a fluorescence lifetime (in CC#N) of 4.24 ns.
In the case of `CCC1(CC)c2cc(B(c3c(C)cc(C)cc3C)c3c(C)cc(C)cc3C)ccc2-c2c1c1c(c3c2C(CC)(CC)c2cc(B(c4c(C)cc(C)cc4C)c4c(C)cc(C)cc4C)ccc2-3)C(CC)(CC)c2cc(B(c3c(C)cc(C)cc3C)c3c(C)cc(C)cc3C)ccc2-1`, where the note is “in C1CCOC1”, the fluorescence lifetime stood at 4.4 ns.
The molecule `CC1(C)C(/C=C/C=C/C=C/C=C2/N(CCCCS(=O)(=O)[O-])c3ccc4ccccc4c3C2(C)C)=[N+](CCCCS(=O)(=O)[O-])c2ccc3ccccc3c21` yielded a fluorescence lifetime (in CC(C)=O) of 0.87 ns; a fluorescence lifetime (in CCO) of 0.62 ns; a fluorescence lifetime (in CO) of 0.51 ns; a fluorescence lifetime (in CS(C)=O) of 0.97 ns; a fluorescence lifetime (in ClC(Cl)Cl) of 1.14 ns; a fluorescence lifetime (in ClCCl) of 0.91 ns. This molecule also showed a fluorescence lifetime (in O) of 0.17 ns.
In turn, `COc1ccc2c(-c3nc(-c4cccc(Br)c4)no3)cc(=O)oc2c1` had a fluorescence lifetime (in ClC(Cl)Cl) of 6.8 ns.
On to `COc1ccccc1C1=C2C(C)=CC(C)=[N+]2[B-](F)(F)n2c(C)cc(C)c21`, for which the fluorescence lifetime by setting is: (in C1CCOC1) 6.42 ns; (in CCCCCC) 5.78 ns.
On to `Cc1cc2nc3[nH]c(=O)[nH]c(=O)c3nc2cc1C`, for which the fluorescence lifetime (in CC#N) was found to be 0.64 ns.
As for `COc1ccc(-c2oc3cccc4c5c(-c6ccc(OC)cc6)c(=N)oc6cccc(c2c34)c65)cc1`, for the setting “in ClC(Cl)Cl”, the fluorescence lifetime was 1.5 ns.
As to `CCCCc1cc2cccc3cc(CCCC)c4cc(-c5cc6[b-]7c(c5)c(CCCC)cc5cccc(cc6CCCC)[n+]75)cc1[b-]4[n+]23`, for the setting “in C1CCCCC1”, the fluorescence lifetime was 20.5 ns.
For `Fc1cc(-c2nc(-c3ccccc3)nc(-c3ccccc3)n2)ccc1-n1c2ccccc2c2c3c(ccc21)C1(c2ccccc2-c2ccccc21)c1ccccc1-3`, for the setting “in O=P(c1ccccc1)(c1ccccc1)c1ccccc1Oc1ccccc1P(=O)(c1ccccc1)c1ccccc1”, the fluorescence lifetime was determined as 8.3 ns.
Regarding `Cc1ccc(/C2=c3\cc/c(o3)=C(\c3ccc(C)cc3)c3ccc([nH]3)-c3ccc4n3[P-](=O)(=O)[N+]3=C(C=CC3=C4c3ccco3)c3ccc2[nH]3)cc1`, the fluorescence lifetime (in ClC(Cl)Cl) was 4.2 ns.
In turn, `CCCCCCOc1cc(/C=C/c2cc(OCCCCCC)c(/C=C/c3cc(OCCCCCC)c(C=C4C(=O)c5ccccc5C4=O)cc3OCCCCCC)cc2OCCCCCC)c(OCCCCCC)cc1C=C1C(=O)c2ccccc2C1=O` yielded a fluorescence lifetime (in ClCCl) of 1.22 ns.
`C[Si](C)(C)C#CC(C#C[Si](C)(C)C)=Cc1ccc(C=C(C#C[Si](C)(C)C)C#C[Si](C)(C)C)s1` yielded a fluorescence lifetime (in ClC(Cl)Cl) of 0.3 ns.
For `CCOC(=O)c1ccc(NC(=O)COc2cc3c4c([nH]c3c(C)c2C)C(=O)CCC4)cc1`, the fluorescence lifetime was 1.23 ns (in C1COCCO1); 1.04 ns (in CC#N); 1.26 ns (in CCO); 2.12 ns (in CS(C)=O); 1.1 ns (in Cc1ccccc1).
As to `C[Si](C)(C)c1ccc2ccc3cccc4ccc1c2c34`, the fluorescence lifetime was found to be 66.9 ns (in CCCCCC), 175 ns (in CO) and 94.2 ns (in ClCCl).
Molecule `CC(C)(C)c1ccc(Oc2cc3c4c(cc(Oc5ccc(C(C)(C)C)cc5)c5c6c(Oc7ccc(C(C)(C)C)cc7)cc7c8c(cc(Oc9ccc(C(C)(C)C)cc9)c(c2c45)c86)C(=O)N(c2ccccc2)C7=O)C(=O)N(c2ccccc2)C3=O)cc1` yielded a fluorescence lifetime (in ClC(Cl)Cl) of 6 ns.
With `COc1ccc(N2c3ccc4ccccc4c3-c3c4ccccc4cc[n+]3[B-]2(c2ccccc2)c2ccccc2)cc1`, where the note is “in Cc1ccccc1”, the fluorescence lifetime is 0.25 ns.
In turn, `CC(C)(C)c1ccc(-c2c3c(c(-c4ccc(C(C)(C)C)cc4)c4cc5ccccc5cc24)Cc2c(c(-c4ccc(C(C)(C)C)cc4)c4cc5ccccc5cc4c2-c2ccc(C(C)(C)C)cc2)C3)cc1` returned a fluorescence lifetime (in ClCCl) of 2.35 ns.
Regarding `c1ccc(-c2ccnc(-c3ccccc3)n2)cc1`, the fluorescence lifetime (in ClC(Cl)Cl) came out at 0.6 ns.
Consider `COc1ccc(C2=C3C(C)=CC(C=Cc4ccc(C(=O)OC5C[C@H]6CCC5(C)C6(C)C)cc4)=[N+]3[B-](F)(F)n3c(C)cc(C)c32)cc1` (some centres not stated), for which the fluorescence lifetime (in Cc1ccccc1) is 3.82 ns.
As for `CC(=O)O[B-]1(OC(C)=O)OC(/C=C/c2cccc3ccccc23)=CC(/C=C/c2cccc3ccccc23)=[O+]1`, the fluorescence lifetime amounted to 5.75 ns (in C1CCOC1); 4.5 ns (in CC#N); 4.67 ns (in CC(C)=O); 4.24 ns (in CS(C)=O); 5.13 ns (in Cc1ccccc1); 5.73 ns (in ClC(Cl)Cl). This molecule also registered a fluorescence lifetime (in ClCCl) of 5.99 ns.
